Measurements as given in patent publication US4818770A, “Prevention of a plant disease by specific inhibition of fungal polyamine biosynthesis” (priority 1986, dated 1989).
Values joined by “and” are separate entries in the source; they are usually repeats but may differ in a detail not shown here. Identical values can stand only once. “Also recorded” adds a separate entry of the source. Like-named read-outs stand apart in the source and are kept apart here.

How the values were obtained:
[1] = test system: P. graminis f. sp. tritici; type: in vivo, Puccinia graminis f. sp. tritici
PA titers of bean leaves = test: Polyamine titers in leaves of sprayed bean plants; type: in vivo, Phaseolus vulgaris
Protocol: PA analysis was performed on leaf samples collected from inhibitor-sprayed bean plants. Leaf samples were ground in prechilled mortars with 10% (w/v) HClO4 at a ratio of 200 mg fresh weight leaf per ml HClO4. Homogenates were centrifuged at 26,00 g for 20 minutes at 4° C. The clear supernatant fractions were used for dansylation according to a procedure previously described. Briefly, 0.4 ml of freshly prepared dansyl (Diaminonaphthylsulfonyl)-C1 (Sigma), 5 mg/ml in acetone, and 0.2 ml of saturated Na2 CO3 were added to 0.2 ml of the supernatant fraction. The dansylated PA were extracted with 0.25 ml benzene and the clear benzene layer was used for PA determinations by TLC on LK6D high resolution silica gel plates (Whatman). After development in chloroform:triethylamine (25:2 v/v) for about 1 hour and location by fluorescence under a UV lamp, the dansylpolyamine bands were scraped off, eluted in 4 ml of ethyl acetate and quantified with an Aminco-Bowman fluorimeter.
The effect of DFMO and DFMA sprays (0.01, 0.1, and 1.0 mM) on PA titers was also examined. Unifoliolate leaves were sprayed in the usual way and examined 1 and 3 days later, while the first trifolioloate leaves, unexpanded ata the time of spray and themselves unsprayed, were examined 8 days later.

[2] = test system: Colletotrichum lagenarium; test: Infection of National Pickling cucumber plants by cucumber anthracnose
Verticillium dahliae [3] = test: Verticillium wilt symptoms in Bonny Best tomato after foliar spray; type: in vivo
Verticillium dahliae [4] = test: Radial mycelial growth of Verticillium dahliae in vitro; type: cell-based; settings: for minimal effective concentration: Verticillium dahliae, in vitro
Uromyces phaseoli = test: Bean rust lesions on unifoliolate leaves of Pinto bean sprayed before or after inoculation; type: in vivo
bean rust uredospores = test: Germination and differentiation of bean rust uredospores in agar; type: cell-based, Uromyces phaseoli; settings: for inhibition at 100 µM / inhibition at 500 µM / inhibition at 1000 µM / inhibition at 5000 µM: Uromyces phaseoli
Puccinia sorghi = test: Infection by corn rust; type: in vivo
[5] = test system: P. recondita f. sp. tritici; type: in vivo, Puccinia recondita f. sp. tritici
Erysiphe polygoni = test: Infection by bean powdery mildew; type: in vivo
[6] = test system: bean plants (Phaseolus vulgaris cv Pinto); test: Effect of sprays on growth and appearance of bean plants; type: in vivo
Protocol: Unifoliolate leaves of 10-day-old bean seedlings were sprayed (400 ul per leaf) with DFMO or alpha-difluoromethylarginine (DFMA) at concentrations of 0.01-5 mM, before or after inoculation with uredospores of the bean rust, Uromyces phaseoli, Race 0. The inhibitor solutions were prepared in 0.01% Tween 20, with the pH adjusted to 7.0. Control plants without inhibitor were sprayed similarly and were allowed to dry before inoculation with the pathogen. After inoculation with rust uredospores (25 mg/100 ml of 0.01% Tween 20) all plants were placed in dew chambers (100% relative humidity) for 16 hours at 19° C. in total darkness. After exposures to inhibitors and uredospores, all plants were returned to the greenhouse and arranged randomly. Disease severity was evaluated 7 days after inoculation by counting foliar lesions. In control plants and those treated with low concentrations of DFMO, uredospores were collected randomly from each treatment to determine percent germination and pathogenicity. For determination of germination, spores were dusted onto Petri plates containing 10 mM 2-(N-morpholino)ethanesulfonic acid (Mes) at pH 7.0, 3 mM CaCl2, 2 mM MgSO4, and 1% purified agar, and incubated for 3 hr at 19° C. in the light.

[7] = test system: Puccinia graminis fsp avenae; type: in vivo
[8] = postinoculation exposure, inhibitor 0.01 mM
[9] = postinoculation exposure, inhibitor 0.025 mM
[10] = postinoculation exposure, inhibitor 0.05 mM
[11] = postinoculation exposure, inhibitor 0.075 mM
[12] = postinoculation exposure, inhibitor 0.10 mM
[13] = postinoculation exposure, inhibitor 0.25 mM
[14] = postinoculation exposure, inhibitor 0.50 mM
[15] = postinoculation exposure, inhibitor 1.0 mM
[16] = postinoculation exposure, inhibitor 5.0 mM
[17] = preinoculation exposure, inhibitor 0.01 mM
[18] = preinoculation exposure, inhibitor 0.025 mM
[19] = preinoculation exposure, inhibitor 0.05 mM
[20] = preinoculation exposure, inhibitor 0.075 mM
[21] = preinoculation exposure, inhibitor 0.10 mM
[22] = preinoculation exposure, inhibitor 0.25 mM
[23] = preinoculation exposure, inhibitor 0.50 mM
[24] = preinoculation exposure, inhibitor 1.0 mM
[25] = preinoculation exposure, inhibitor 5.0 mM

NCCCC(N)(C(=O)O)C(F)F (racemic) [DFMO, DL-alpha-difluorimethylornithine]
% control ([1]; post-inoculation, 0.01 mM): 36%
Uredia/plant ([1]; post-inoculation, 0.01 mM): 134 Uredia/plant
% control ([1]; post-inoculation, 0.025 mM): 44%
Uredia/plant ([1]; post-inoculation, 0.025 mM): 117 Uredia/plant
% control ([1]; post-inoculation, 0.065 mM): 55%
Uredia/plant ([1]; post-inoculation, 0.065 mM): 94 Uredia/plant
% control ([1]; post-inoculation, 0.10 mM): 76%
Uredia/plant ([1]; post-inoculation, 0.10 mM): 51 Uredia/plant
% control ([1]; post-inoculation, 0.13 mM): 77%
Uredia/plant ([1]; post-inoculation, 0.13 mM): 49 Uredia/plant
% control ([1]; post-inoculation, 0.16 mM): 81%
Uredia/plant ([1]; post-inoculation, 0.16 mM): 40 Uredia/plant
% control ([1]; post-inoculation, 0.20 mM): 82%
Uredia/plant ([1]; post-inoculation, 0.20 mM): 37 Uredia/plant
% control ([1]; post-inoculation, 1.00 mM): 92%
Uredia/plant ([1]; post-inoculation, 1.00 mM): 17 Uredia/plant
ED50, wheat stem rust ([1]; pre-inoculation treatment): 560 µM
% control ([1]; pre-inoculation, 0.01 mM): 8%
Uredia/plant ([1]; pre-inoculation, 0.01 mM): 194 Uredia/plant
% control ([1]; pre-inoculation, 0.025 mM): 17%
Uredia/plant ([1]; pre-inoculation, 0.025 mM): 175 Uredia/plant
% control ([1]; pre-inoculation, 0.065 mM): 13%
Uredia/plant ([1]; pre-inoculation, 0.065 mM): 182 Uredia/plant
% control ([1]; pre-inoculation, 0.10 mM): 13%
Uredia/plant ([1]; pre-inoculation, 0.10 mM): 183 Uredia/plant
% control ([1]; pre-inoculation, 0.13 mM): 19%
Uredia/plant ([1]; pre-inoculation, 0.13 mM): 170 Uredia/plant
% control ([1]; pre-inoculation, 0.16 mM): 32%
Uredia/plant ([1]; pre-inoculation, 0.16 mM): 143 Uredia/plant
% control ([1]; pre-inoculation, 0.20 mM): 32%
Uredia/plant ([1]; pre-inoculation, 0.20 mM): 143 Uredia/plant
% control ([1]; pre-inoculation, 1.00 mM): 57%
Uredia/plant ([1]; pre-inoculation, 1.00 mM): 91 Uredia/plant
Put and Spd titers (PA titers of bean leaves; highest concentration of DFMO): increased
PA levels in treated leaves (PA titers of bean leaves; sprays 0.01, 0.1 and 1.0 mM, 1, 3 and 8 days later): no significant reductions
Lesions per plant ([2]; 1.0 mM): 69 per plant
Percent control ([2]; 1.0 mM): 14%
Lesions per plant ([2]; 5.0 mM): 69 per plant
Percent control ([2]; 5.0 mM): 14%
Lesions per plant ([2]; 10.0 mM): 70 per plant
Percent control ([2]; 10.0 mM): 14%
symptoms of Verticillium wilt compared to controls (Verticillium dahliae [3]; 2.5 mM and 10 mM, 24 hours after inoculation): suppressed symptoms
most effective time for application (Verticillium dahliae [3]; 5 mM DFMO, symptoms 21 days after inoculation): 24-48 hours post-inoculation
delay of onset of symptom expression (Verticillium dahliae [3]; increasing concentration from 2.5 to 10 mM): up to 7 days
wilt symptoms (Verticillium dahliae [3]; spores applied to the soil, DFMO applied to the leaves): greatly suppressed
minimal effective concentration (Verticillium dahliae [4]; 192 h, 8 days, read-out: concentration reducing radial (mycelial) growth): ≥ 5 µM
minimal effective concentration (Verticillium dahliae [4]; read-out: concentration inhibiting pigment synthesis): ≥ 500 µM
effect of 1 mM putrescine on DFMO-induced growth inhibition (Verticillium dahliae [4]; putrescine added to culture medium): reversed
protection against infection (Uromyces phaseoli; 400 ul of 0.25 mM applied to a single leaf): complete protection
disease symptoms / protection against bean rust (Uromyces phaseoli; DFMO at 0.5 mM or higher, pre- and postinoculation, 400 ul per leaf): No disease symptoms could be detected; also recorded: complete protection
germination or pathogenicity of uredospores collected from treated plants (Uromyces phaseoli; plants treated with low concentrations): no decrease in germination or pathogenicity
delay of uredial appearance (Uromyces phaseoli; postinoculation exposure, lower concentrations, dose-dependent): 2 to 6 days
Lesions per cm^2 (Uromyces phaseoli; [8]): 40 ± 5 per cm^2
Lesions per leaf (Uromyces phaseoli; [8]): 1888 ± 249 per leaf
Lesions per cm^2 (Uromyces phaseoli; [9]): 28 ± 2 per cm^2
Lesions per leaf (Uromyces phaseoli; [9]): 1526 ± 160 per leaf
Lesions per cm^2 (Uromyces phaseoli; [10]): 17 ± 2 per cm^2
Lesions per leaf (Uromyces phaseoli; [10]): 1026 ± 131 per leaf
Lesions per cm^2 (Uromyces phaseoli; [11]): 12 ± 1 per cm^2
Lesions per leaf (Uromyces phaseoli; [11]): 669 ± 96 per leaf
Lesions per cm^2 (Uromyces phaseoli; [12]): 5 ± 1 per cm^2
Lesions per leaf (Uromyces phaseoli; [12]): 221 ± 39 per leaf
Lesions per cm^2 (Uromyces phaseoli; [13]): 2 ± 1 per cm^2
Lesions per leaf (Uromyces phaseoli; [13]): 73 ± 4 per leaf
Lesions per cm^2 (Uromyces phaseoli; [14]): 0 per cm^2
Lesions per leaf (Uromyces phaseoli; [14]): 0 per leaf
Lesions per cm^2 (Uromyces phaseoli; [15]): 0 per cm^2
Lesions per leaf (Uromyces phaseoli; [15]): 0 per leaf
Lesions per cm^2 (Uromyces phaseoli; [16]): 0 per cm^2
Lesions per leaf (Uromyces phaseoli; [16]): 0 per leaf
Lesions per cm^2 (Uromyces phaseoli; [17]): 47 ± 6 per cm^2
Lesions per leaf (Uromyces phaseoli; [17]): 2677 ± 397 per leaf
Lesions per cm^2 (Uromyces phaseoli; [18]): 34 ± 1 per cm^2
Lesions per leaf (Uromyces phaseoli; [18]): 2071 ± 103 per leaf
Lesions per cm^2 (Uromyces phaseoli; [19]): 29 ± 4 per cm^2
Lesions per leaf (Uromyces phaseoli; [19]): 1712 ± 375 per leaf
Lesions per cm^2 (Uromyces phaseoli; [20]): 19 ± 2 per cm^2
Lesions per leaf (Uromyces phaseoli; [20]): 1177 ± 159 per leaf
Lesions per cm^2 (Uromyces phaseoli; [21]): 14 ± 2 per cm^2
Lesions per leaf (Uromyces phaseoli; [21]): 659 ± 104 per leaf
Lesions per cm^2 (Uromyces phaseoli; [22]): 2 ± 1 per cm^2
Lesions per leaf (Uromyces phaseoli; [22]): 85 ± 20 per leaf
Lesions per cm^2 (Uromyces phaseoli; [23]): 0 per cm^2
Lesions per leaf (Uromyces phaseoli; [23]): 0 per leaf
Lesions per cm^2 (Uromyces phaseoli; [24]): 0 per cm^2
Lesions per leaf (Uromyces phaseoli; [24]): 0 per leaf
Lesions per cm^2 (Uromyces phaseoli; [25]): 0 per cm^2
Lesions per leaf (Uromyces phaseoli; [25]): 0 per leaf
Differentiation % (bean rust uredospores; 0.1 mM): 46%
Germination % (bean rust uredospores; 0.1 mM): 32%
Differentiation % (bean rust uredospores; 0.5 mM): 35%
Germination % (bean rust uredospores; 0.5 mM): 32%
Differentiation % (bean rust uredospores; 1.0 mM): 30%
Germination % (bean rust uredospores; 1.0 mM): 32%
Differentiation % (bean rust uredospores; 5.0 mM): 19%
Germination % (bean rust uredospores; 5.0 mM): 22%
inhibition at 100 µM (bean rust uredospores; 0.1 mM, read-out: Differentiation % Inhibiton): 22%
inhibition at 100 µM (bean rust uredospores; 0.1 mM, read-out: Germination % Inhibition): 24%
inhibition at 500 µM (bean rust uredospores; 0.5 mM, read-out: Differentiation % Inhibiton): 41%
inhibition at 500 µM (bean rust uredospores; 0.5 mM, read-out: Germination % Inhibition): 24%
inhibition at 1000 µM (bean rust uredospores; 1.0 mM, read-out: Differentiation % Inhibiton): 49%
inhibition at 1000 µM (bean rust uredospores; 1.0 mM, read-out: Germination % Inhibition): 24%
inhibition at 5000 µM (bean rust uredospores; 5.0 mM, read-out: Differentiation % Inhibiton): 68%
inhibition at 5000 µM (bean rust uredospores; 5.0 mM, read-out: Germination % Inhibition): 48%
Percent control (Puccinia sorghi; 0.01 mM): 43.5%
Percent control (Puccinia sorghi; 0.025 mM): 38.4%
Percent control (Puccinia sorghi; 0.065 mM): 37.4%
Percent control (Puccinia sorghi; 0.10 mM): 63.1%
Percent control (Puccinia sorghi; 0.13 mM): 67.7%
Percent control (Puccinia sorghi; 0.16 mM): 88.7% and ~90%
Percent control (Puccinia sorghi; 0.20 mM): 88.4%
Percent control (Puccinia sorghi; 1.00 mM): 94.9%
EC50 (Puccinia sorghi; Puccinia sorghi, read-out: concentration providing 50% protection against corn rust): < 100 µM
% control ([5]; 0.01 mM): 45% and 60%
Uredia/plant ([5]; 0.01 mM): 44 Uredia/plant and 32 Uredia/plant
% control ([5]; 0.025 mM): 51% and 66%
Uredia/plant ([5]; 0.025 mM): 39 Uredia/plant and 27 Uredia/plant
% control ([5]; 0.13 mM): 55% and 90%
% control ([5]; 0.16 mM): 52% and 92%
% control ([5]; 0.20 mM): 65% and 95%
% control ([5]; 1.00 mM): 72% and 100%
% control ([5]; in vivo): 52% and 82%
Percent control (Erysiphe polygoni; 5 mM): 45%
Percent control (Erysiphe polygoni; 10 mM): 52% and ~50%
appearance, growth and development of sprayed bean plants ([6]; all concentrations, as high as 5 mM): looked healthy, exhibiting no malformation or reduction in growth rate; also recorded: no apparent effect on growth and development of the plant
growth of the bean plants ([6]; sprays 0.01, 0.1 and 1.0 mM): no effect
Percent control ([7]; 0.01 mM): 50.7% and 50%
Percent control ([7]; 0.025 mM): 63.2%
Percent control ([7]; 0.065 mM): 65.5%
Percent control ([7]; 0.10 mM): 71.0%
Percent control ([7]; 0.13 mM): 67.9%
Percent control ([7]; 0.16 mM): 77.3%
